{
  "source": "paper PMC1867856",
  "about": "“Structural Insights into the Evolution of a Non-Biological Protein: Importance of Surface Residues in Protein Fold Optimization” (PLoS ONE, 2007)",
  "assay_type_in_all_cases": "binding, synthetic construct",
  "key": {"[1]": {"target": "T1, protein 18-19 (N32D)", "T1 construct": "80-residue artificial protein as N-terminal MBP fusion", "experiment": "equilibrium ultrafiltration with γ-[…]-ATP"}, "[2]": {"target": "T2, protein 18-19 (D65V)", "T2 construct": "80-residue artificial protein as N-terminal MBP fusion", "experiment": "equilibrium ultrafiltration with γ-[…]-ATP"}, "[3]": {"target": "T3, protein 18-19", "T3 construct": "Kd measured on the N-terminal MBP fusion; crystal structure model residues 9-71", "experiment": "X-ray crystal structure ([…] Å) and equilibrium ultrafiltration with γ-[…]-ATP"}},
  "data": [
    {"compound": "Nc1ncnc2c1ncn2[C@@H]1O[C@H](COP(=O)(O)OP(=O)(O)OP(=O)(O)O)[C@@H](O)[C@H]1O", "note": "[ATP]", "values": [
      {"measurement": "Kd", "setting": "[1]", "value": "360 ± 12", "unit": "nM"},
      {"measurement": "Kd", "setting": "[2]", "value": "640 ± 28", "unit": "nM"},
      {"measurement": "Kd", "setting": "[3]", "value": "1100 ± 78", "unit": "nM"}
    ]}
  ]
}
